In patent US20020143062A1, “Method to incorporate N-(4-hydroxyphenyl) retinamide in liposomes” (Board of Regents, The University of Texas System, priority 2000, published 2002):
Like-named read-outs stand apart in the source and are kept apart here.

How the values were obtained:
[1] = system: ER-positive MCF-7 cells; assay: Growth inhibition, cell count (Table 6); assay type: cell-based; conditions: 4HPR 1 μM alone, 5 days
From the text: Nitric oxide (NO), an important biological second messenger, is known to induce growth inhibition and apoptosis in cells. Nitric oxide (NO) is biosynthesized by isoenzymes called nitric oxide synthases. […]

[2] = system: ER-positive MCF-7 cells; assay: NO production, nitrite assay (Table 6); assay type: cell-based; conditions: 4HPR 1 μM alone, 5 days
From the text: (§1) Nitric oxide (NO), an important biological second messenger, is known to induce growth inhibition and apoptosis in cells. Nitric oxide (NO) is biosynthesized by isoenzymes called nitric oxide synthases. One such isoenzyme, inducible NOS (iNOS), is present only after cytokine induction, such as interferon-γ (IFN-γ). […] Here, the ability of liposomal 4-HPR and IFN-γ to induce NO production and growth inhibition in breast cancer positive (Table 5) and breast cancer negative (Table 6) cells is examined by nitrite assays and growth inhibition assays, as known to the skilled artisan.
(§2) It is also known to those skilled in the art that nitric oxide (NO) is a biologic mediator derived from the amino acid L-arginine. A family of enzymes, known as nitric oxide synthase (NOS), act upon L-arginine to oxidize one of the guanidino nitrogens to nitric oxide while citrulline is formed from the remainder of the L-arginine molecule.

[3] = Incorporation efficiency of 4-HPR into liposomes (OD345 after/before separation); assay type: physicochemical
Description: The mixture was frozen in acetone-dry ice bath, and then dried by lyophilzer. It was stored as a powder and resuspended with saline before use.
To determine the incorporation efficiency of 4-HPR into liposomes, liposomal 4-HPR powder was resuspended in saline and any free, unincorporated free 4-HPR was separated by centrifugation at 30,000× g for 1 hour. Liposomal 4-HPR was collected as a pellet and washed three times with saline. 4-HPR concentration was determined by absorbance at 345 nm. To remove the interference by liposomal turbidity, absorbance was measured after liposomal 4-HPR before and after separation was diluted with 1:1 mixture of dimethylsulfoxide and water. The incorporation efficiency was calculated by the following equation:
Incorporation efficiency=OD345 (after separation)/OD345 (before separation)×100%

[4] = system: MCF-7/WT; assay: Cellular proliferation assay, IC50 of retinoids with/without cyclosporin A; assay type: cell-based; conditions: for IC50: Homo sapiens
[5] = system: BT-474 cells; assay: Growth and viability, Celltiter 96 Aqueous (MTS) cell proliferation assay; assay type: cell-based; conditions: Homo sapiens, BT-474, 72 h, 3 days, % of untreated cells, read-out: Growth and viability (%) after treatment
Description: (§3) Breast cancer cell lines were plated in 96 well plates in DMEM/F12 medium supplemented with 5% fetal calf serum and incubated with different concentrations of liposomal 4-HPR and free 4-HPR, respectively. At the end of incubation, the growth of cells was determined by the Celltiter 96 Aqueous nonradioactive cell proliferation assay (Promega Corp., Madison, Wis.) according to the manufacturer's protocol. Growth and viability of cells were determined by MTS assay after treatment with 4-HPR for 3 days (BT-474) and 4 days (MCF7). Growth of treated cells was compared with that of untreated cells cultured under the same conditions, and was expressed as % of untreated cells.

[6] = system: MCF-7 cells; assay: as above; assay type: cell-based; conditions: Homo sapiens, MCF7, 96 h, 4 days, % of untreated cells, read-out: Growth and viability (%) after treatment
Description: as §3

[7] = system: ER-positive MCF-7 cells; assay: NO production, nitrite assay (Tables 5 and 7); assay type: cell-based
From the text: as §1, §2
(§4) Liposomal 4-HPR in combination with cyclosporin A, increased iNOS production of NO in breast cancer cells (Table 3-5). […] Furthermore, an increase in the production of NO in these cells was not indicated with other retinoids such as CD437 and ATRA.

[8] = system: MDA-MB-231; assay: Cellular proliferation assay, IC50 of retinoids with/without cyclosporin A; assay type: cell-based; conditions: for IC50: Homo sapiens
[9] = cited from earlier work
[10] = system: MDA-MB-453; assay: Cellular proliferation assay, IC50 of retinoids with/without cyclosporin A; assay type: cell-based; conditions: for IC50: Homo sapiens
[11] = system: SK-Br-3; assay: NO production, nitrite (Table 10); assay type: cell-based; conditions: Herceptin − or + as labelled
From the text: (§5) Overexpression/amplification of the Her-2/neu oncogene has been associated with poor prognosis for breast cancer.

[12] = system: MDA-MB-453; assay: NO production, nitrite (Table 10); assay type: cell-based; conditions: Herceptin − or + as labelled
From the text: as §5

[13] = system: BT-474; assay: NO production, nitrite (Table 10); assay type: cell-based; conditions: Herceptin − or + as labelled
From the text: as §5

[14] = system: ER-negative MDA-MB-231 cells; assay: NO production, nitrite (Table 8); assay type: cell-based; conditions: alone or with cyclosporin A 4 μg/ml as labelled, 3 days
From the text: as §4

[15] = system: BT-474; assay: Cellular proliferation assay, IC50 of retinoids with/without cyclosporin A; assay type: cell-based; conditions: for IC50: Homo sapiens
[16] = 100 μM
Description: The shelf stability of liposomal 4-HPR with free 4-HPR was compared. Liposomal 4-HPR and free 4-HPR were diluted with 0.9% normal saline at 100 μM concentration, and incubated at room temperature under subdued light. At various time points, absorbance at 345 nm was measured as a parameter of 4-HPR stability. All data are expressed as % of absorbance at time zero, which is considered as 100%.

[17] = system: MCF-7/ADR; assay: Cellular proliferation assay, IC50 of retinoids with/without cyclosporin A; assay type: cell-based; conditions: for IC50: Homo sapiens, NCI/ADR-RES
[18] = system: ER-positive MCF-7 cells; assay: Growth inhibition, cell count (Table 5); assay type: cell-based; conditions: 4HPR 1 μM alone; 5 days
From the text: as §1

[19] = cotreatment with CsA 2 μg/ml, read-out: IC50 With CsA
[20] = without cyclosporin A, read-out: IC50 Without CsA

For `CC1=C(/C=C/C(C)=C/C=C/C(C)=C/C(=O)Nc2ccc(O)cc2)C(C)(C)CCC1` [4-HPR, N-(4-hydroxyphenyl) retinamide], the Cell count [1] was 34 × 10^4, the “Nitrite (NO production)” value [2] was 36.9 ± 5.8 μM Nitrite /1 × 10^6 cells and the incorporation efficiency ([3]; by optimizing ratio of 4-HPR to lipid mixture and ratio of DMPC to soybean oil) was “up to 96%”. The “Incorporation efficiency (%)” value ([3]; composition column 1 of 7: 4-HPR:Lipid (w/w) 1:17, DMPC:soybean oil 1:0, water in tertiary butyl alcohol 0) was 60.0%, the “Incorporation efficiency (%)” value ([3]; composition column 2 of 7: 4-HPR:Lipid 1:17, DMPC:soybean oil 1:0, water in tertiary butyl alcohol 1) was 81.5% and the “Incorporation efficiency (%)” value ([3]; composition column 3 of 7: water in tertiary butyl alcohol 1, lipid ratios not resolvable (header spans lost), DMPC:soybean oil 9:1) was 87.5%. The “Incorporation efficiency (%)” value ([3]; composition column 4 of 7: water in tertiary butyl alcohol 10, lipid ratios not resolvable (header spans lost)) was 92.8%, the “Incorporation efficiency (%)” value ([3]; composition column 5 of 7: water in tertiary butyl alcohol 1, lipid ratios not resolvable (header spans lost), DMPC:soybean oil 8:2) was 77.5% and the “Incorporation efficiency (%)” value ([3]; composition column 6 of 7: 4-HPR:Lipid 1:5 (likely), DMPC:soybean oil 9:1, water in tertiary butyl alcohol 10) was 88.3%. The “Incorporation efficiency (%)” value ([3]; composition column 7 of 7: 4-HPR:Lipid 1:15, DMPC:soybean oil 9:1, water in tertiary butyl alcohol 10) was 96.4%, the “-Fold ↑ (IC50 without CsA / with CsA)” value ([4]; CsA 2 μg/ml) was 3.11 -Fold and the IC50 ([4]; MCF7, cotreatment with CsA 2 μg/ml, read-out: IC50 With CsA) was 1.21 µM. For the same molecule, the IC50 ([4]; MCF7, without cyclosporin A, read-out: IC50 Without CsA) was 3.76 µM, the viability at 0.1 µM ([5]; 0.1 μM 4-HPR) was 100 ± 13.4% and the viability at 0.9 µM ([5]; 0.9 μM 4-HPR) was 109 ± 4.1%. For the same molecule, the viability at […] ([5]; 1.5 μM 4-HPR) was 99.4 ± 12.1%, the viability at 2.3 µM ([5]; 2.3 μM 4-HPR) was 76.9 ± 5.3% and the viability at 3.8 µM ([5]; 3.8 μM 4-HPR) was 52.6 ± 3.7%. The viability at 9 µM ([5]; 9.0 μM 4-HPR) was 17.1 ± 2.8%, the viability at 0.1 µM ([6]; 0.1 μM 4-HPR) was 106 ± 7.8% and the viability at 0.9 µM ([6]; 0.9 μM 4-HPR) was 77.5 ± 5.8%. For the same molecule, the viability at […] ([6]; 1.5 μM 4-HPR) was 43.8 ± 5.7%, the viability at 1.8 µM ([6]; 1.8 μM 4-HPR) was 33.6 ± 2% and the viability at 3.6 µM ([6]; 3.6 μM 4-HPR) was 17.8 ± 1.5%. The “Nitrite (NO production)” value ([7]; 4HPR 1 μM alone, 5 days, text: liposomal 4-HPR) was 72.6 ± 1.7 μM Nitrite /1 × 10^6 cells, the “Nitrite (NO production)” value ([7]; 4HPR 1.0 μM, alone or with cyclosporin A 4 μg/ml as labelled, 3 days) was 12.5 μM Nitrite /1 × 10^6 cells and the “Nitrite (NO production)” value ([7]; 4HPR 2.0 μM, alone or with cyclosporin A 4 μg/ml as labelled, 3 days) was 33.8 μM Nitrite /1 × 10^6 cells. The “-Fold ↑ (IC50 without CsA / with CsA)” value ([8]; CsA 2 μg/ml) was 6.37 -Fold, the IC50 [8, 19] was 1.23 µM and the IC50 [8, 20] was 7.84 µM. For the same molecule, the “solubility in water” value [9] was “poorly soluble in water”, the “-Fold ↑ (IC50 without CsA / with CsA)” value ([10]; CsA 2 μg/ml) was 3.26 -Fold and the IC50 [10, 19] was 1.9 µM. The IC50 [10, 20] was 6.2 µM, the “Nitrite (NO production)” value ([11]; 4HPR 1 μM) was 34.9 ± 1.2 μM Nitrite /1 × 10^6 cells and the “Nitrite (NO production)” value ([11]; 4HPR 2.5 μM) was 75.2 ± 5.1 μM Nitrite /1 × 10^6 cells. For the same molecule, the “Nitrite (NO production)” value ([12]; 4HPR 1 μM) was 30.9 ± 1.5 μM Nitrite /1 × 10^6 cells, the “Nitrite (NO production)” value ([12]; 4HPR 2.5 μM) was 68.1 ± 3.4 μM Nitrite /1 × 10^6 cells and the “Nitrite (NO production)” value ([13]; 4HPR 1 μM) was 45.8 ± 0. μM Nitrite /1 × 10^6 cells. The “Nitrite (NO production)” value ([13]; 4HPR 2.5 μM) was 146.9 ± 2.8 μM Nitrite /1 × 10^6 cells, the “Nitrite (NO production)” value ([14]; 4HPR 2.5 μM) was 22.8 μM Nitrite /1 × 10^6 cells and the “Nitrite (NO production)” value ([14]; 4HPR 6.0 μM) was 26.7 μM Nitrite /1 × 10^6 cells. For the same molecule, the “-Fold ↑ (IC50 without CsA / with CsA)” value ([15]; CsA 2 μg/ml) was 1.81 -Fold, the IC50 [15, 19] was 1.99 µM and the IC50 [15, 20] was 3.61 µM. For the same molecule, the “% remaining (absorbance at 345 nm as % of time zero)” value (from here on “% remaining”) ([16]; 0 h) was 100%, the “% remaining” value ([16]; 24 h) was 85% and the “% remaining” value ([16]; 48 h) was 84%. For the same molecule, the “% remaining” value ([16]; 72 h) was 71%, the “% remaining” value ([16]; 96 h) was 61% and the “% remaining” value ([16]; 120 h) was 51%. The “% remaining” value ([16]; 168 h) was 32%, the “-Fold ↑ (IC50 without CsA / with CsA)” value ([17]; CsA 4 μg/ml) was 2.47 -Fold and the IC50 ([17]; cotreatment with CsA 4 μg/ml, read-out: IC50 With CsA) was 2.7 µM. For the same molecule, the IC50 [17, 20] was 6.66 µM and the Cell count [18] was 20 × 10^4.
